Consider 2 compounds from article PMC12169663, “Deciphering the Tumor Uptake of Heterobivalent (SST2/Albumin) [^64Cu]Cu-NODAGA-cLAB-TATEs” (Journal of Medicinal Chemistry, 2025).

As usually defined, the logD is lipophilicity at a set pH, counting ionised and neutral species.

For data set [1], the target named is T1, HSA (Homo sapiens, UniProt P02768). Nature of the data set: Schild analysis of SST2 binding in the presence of HSA. As for the experimental part:
5 Schild analysis of SST2 binding in the presence of HAS. […] Simulation was performed in GraphPad Prism (version 10.2.3) according to the solution in PRISM language provided by Blakeley et al. for their derived cubic equation. (B, C) Exemplary saturation binding curves of [^64Cu]-Cu-NODAGA-cLAB2-TATE (B) and [^64Cu]-Cu-NODAGA-TATE (C) to intact MPC cells in the presence of increasing concentrations of HSA. For each curve, data shown are mean values (±SD) of one experiment, which was performed in triplicate. […] This plot was analyzed by linear regression. The simulation data provide a slope of unity, while for [^64Cu]-Cu-NODAGA-cLAB2-TATE, a slope of 0.69 (CI of 95%: 0.48–0.90, R ^2 = 0.990) was obtained.
Analyzing the experimental data by nonlinear regression according to the model of Blakeley et al. with fixed values for [HSA], [SST2], and K d[SST2], provided the K d[HSA] values (Table ). […]
For Schild analysis, the ratio (similar to the agonist dose ratio, DR) between the apparent K d value in the presence of each HSA concentration and the K d value in the absence of HSA was calculated. Then, the logarithm of these DR minus 1 (log(DR-1)) was calculated and plotted against the log of the concentration of HSA. This plot was analyzed by linear regression with the x-intercept equals to the log(K d) value of the radioligand for HSA.

Data set [2] addresses T1, HSA. Nature of the data set: Kd[HSA] from SST2 saturation binding in presence of HSA, nonlinear regression with model of Blakeley et al. An excerpt: Blakeley et al. developed a mathematical model that includes radioligand, protein (herein HSA), and target receptor (herein SST2) to derive the K d[HSA] value of the radioligand from saturation binding experiments to the target receptor in the presence of HSA. The authors specified an explicit mathematical solution for their proposed cubic equation and provided this solution also in a practical format for GraphPad Prism, which allows the analysis of experimental data but also simulations.

Data set [3] has as its target human serum albumin (HSA) (Homo sapiens, UniProt P02768). Nature of the data set: Radiometric ultrafiltration assay for binding to HSA.
Protocol: The ultrafiltration assay used to quantify the binding of the ^64Cu-labeled peptides to HSA was performed as previously described for NODAGA-cLAB-TATEs. , Briefly, a constant activity amount of the radioligands (10–15 MBq) were mixed with different HSA concentrations (200 nM–1.4 mM). Aliquots were loaded into the ultrafiltration devices (4104 centrifugal filter units by Millipore; 30 000 Da nominal molecular weight limit, methylcellulose micropartition membranes) and centrifuged. After centrifugation, aliquots from the top and bottom fractions were measured in a γ-counter (PerkinElmer, Wizard^2 2480 automatic gamma counter). The retained fraction was calculated as a quotient of these measurements. The dissociation constant, K d, was calculated using the Morrison equation.
In data set [4] the test system is MPC tumor-bearing NMRI-nu/nu mice. Also noted: method as in not given. The settings on record: previous study of the authors, ref not given, cited from earlier work.
The nature of data set [5]: Plasma stability assay, mouse plasma. It counts as in vitro ADME. An excerpt: Previously, we discovered that the ^64Cu-labeled NODAGA-cLAB-TATEs with a primary amide functionality within the albumin-binding moiety are subject to a metabolic transformation in mouse plasma. In fact, the primary amide is slowly hydrolyzed to the carboxylic acid, which turned out to be catalyzed by plasma carboxylesterases as proven by blocking this transformation in the presence of bis-para-nitrophenylphosphate. […] As this transformation entails also an increase in the binding affinity to albumin, there might be effects on the biodistribution in mice, in particular the blood circulation time. To investigate this, NODAGA-cLAB6-TATE was designed, with cLAB6 (N3Bz-D-Lys(MPB)-NH2) representing the D-configured pendant of cLAB4 (N3Bz-L-Lys(MPB)-NH2). […] However, the apparent half-lives for both compounds (≈13 and >24 h) are longer compared to the half-lives previously determined for [ ^ 64 Cu]-Cu-NODAGA-cLAB3-TATE and [ ^ 64 Cu]-Cu-NODAGA-cLAB4-TATE (≈6 and ≈3 h, respectively). For better comparability, the stability of [ ^ 64 Cu]-Cu-NODAGA-cLAB4-TATE was again examined with the same mouse plasma batch used for [ ^ 64 Cu]-Cu-NODAGA-cLAB5-TATE and [ ^ 64 Cu]-Cu-NODAGA-cLAB4- scr TATE. […] Therefore, the discrepancy with our previously reported stability data in mouse plasma might result from differences in the activity of plasma carboxylesterases in the obtained mouse plasma. However, the rate of amide hydrolysis is indeed lower for [ ^ 64 Cu]-Cu-NODAGA-cLAB4- scr TATE, independent of the mouse plasma batch, which might indicate that the actual amino acid sequence in these peptides affects the recognition by the plasma carboxylesterases.
2 Stability of the ^64Cu-labeled TATE derivatives in mouse plasma. (A) Radio-HPLC chromatograms of [^64Cu]-Cu-NODAGA-cLAB5-TATE (red), [^64Cu]-Cu-NODAGA-cLAB6-TATE (green), and [^64Cu]-Cu-NODAGA-cLAB- scr TATE (blue) after ^64Cu-labeling and incubation in mouse plasma for 24 h show the transformation of [^64Cu]-Cu-NODAGA-cLAB5-TATE and [^64Cu]-Cu-NODAGA-cLAB4- scr TATE into a metabolite of higher retention time (see the Discussion for explanation). (B) Plot of residual intact radioligands upon incubation with mouse plasma including nonlinear regression (black line) according to one-phase decay for [^64Cu]-Cu-NODAGA-cLAB5-TATE (red circles). The dotted lines represent fractions of 0.5 and 0.9. Data shown are mean values (±SD) from 1 to 3 experiments (each experiment was performed in single execution). […]
(§1) Plasma stability of the radioligands was done as previously described for NODAGA-cLAB-TATE and NODAGA-NES-TATEs. , Briefly, an aliquot of the radioligand was added to plasma and stability was assessed at different time points by withdrawing an aliquot, followed by protein precipitation and analysis by radio-HPLC.

Data set [6] is described as follows: Plasma stability assay, human plasma. The data set is classed as in vitro ADME. The following applies: 37 °C, up to 24 h, single experiment, read-out: t1/2 (plasma), human.
Text: Previously, we discovered that the ^64Cu-labeled NODAGA-cLAB-TATEs with a primary amide functionality within the albumin-binding moiety are subject to a metabolic transformation in mouse plasma. In fact, the primary amide is slowly hydrolyzed to the carboxylic acid, which turned out to be catalyzed by plasma carboxylesterases as proven by blocking this transformation in the presence of bis-para-nitrophenylphosphate. […] As this transformation entails also an increase in the binding affinity to albumin, there might be effects on the biodistribution in mice, in particular the blood circulation time. To investigate this, NODAGA-cLAB6-TATE was designed, with cLAB6 (N3Bz-D-Lys(MPB)-NH2) representing the D-configured pendant of cLAB4 (N3Bz-L-Lys(MPB)-NH2). […] However, the apparent half-lives for both compounds (≈13 and >24 h) are longer compared to the half-lives previously determined for [ ^ 64 Cu]-Cu-NODAGA-cLAB3-TATE and [ ^ 64 Cu]-Cu-NODAGA-cLAB4-TATE (≈6 and ≈3 h, respectively). […]
as §1

Data set [7] in a line: Small-animal PET imaging in subcutaneous MPC tumor allograft model. The settings on record: female, NMRI-nu/nu (Rj:NMRI-Foxn1nu/nu), mouse, tumor, iv, total radioactivity.
Protocol: (§2) The biodistribution of [ ^ 64 Cu]­Cu-NODAGA-cLAB­(5/6)-TATE, [ ^ 64 Cu]­Cu-NODAGA-cLAB4- scr TATE, and [ ^ 64 Cu]­Cu-DOTA-EB-TATE was assessed in a subcutaneous MPC tumor allograft model via small-animal PET imaging (Figure A–D). The time-activity curves (TACs) for tumor, kidneys, and heart are shown in Figure A–D (for TACs of muscle and liver, see Figure S6) and the calculated areas under curves (AUC0–48h) and tumor-to-tissue ratios are graphically summarized in Figure E,F, respectively.
(§3) (A–D) Time-activity curves (SUV, decay-corrected, as a function of time up to 48 h) obtained by PET acquisition are depicted (0–2 h in dynamic mode and time points 5, 24, and 48 h p.i.; the x-axes are segmented accordingly). Data shown are mean values (±SD) of a group of MPC tumor-bearing NMRI-nu/nu mice (n = 2, but for cLAB6-TATE n = 4). […] (E) Calculated AUC0–48h values. Data shown are mean values (±SD). (F) Tumor/organ ratios based in the AUC0–48h values.
(§4) A number of 4 × 10^6 MPC cells were resuspended in 40 μL of Dulbecco’s phosphate-buffered saline and injected subcutaneously into the shoulder of 7–10-week-old female nude mice (Rj:NMRI-Foxn1^nu/nu, Janvier Laboratories, Le Genest-Saint-Isle, France). General anesthesia was induced and maintained with inhalation of 10% (v/v) desflurane in 30% oxygen/air (v/v). Tumor growth was monitored using caliper measurements. Animals were sacrificed using CO2 inhalation and cervical dislocation. When diameters of MPC tumors reached 8 ± 3 mm (volumes of 65–282 mm^3), small-animal positron emission tomography (PET) was performed using the nanoScan PET/CT (Mediso Medical Imaging Systems, Budapest, Hungary) and Si78 PET/CT (BRUKER, Billerica, MA) instruments. Scanners were cross-calibrated using a syringe source containing 10 MBq of [^64Cu]­CuCl2 diluted in 2 mL of 0.01 M HCl. Each mouse (n = 2) received between 7 and 10 MBq of the respective radioligand (A m = 40 GBq/μmoL) delivered in 0.154 M NaCl via intravenous injection through a tail vein catheter within the initial 30 s after scan start. […] Standardized uptake values (SUV = [MBq detected activity/mL tissue]/[MBq injected activity/g body weight]) were determined in defined volumes of interest (VOIs) and reported as VOI-averaged SUVmean ± range [min–max]. Assuming a density of 1 g/mL for body tissues, the SUVs become dimensionless.
The subject of data set [8] is MPC tumor-bearing NMRI-nu/nu mice. The data set is described as above. The following applies: PET, i.v., 7–10 MBq/animal.
Protocol: as §2, §3, §4
A further data set has as its system MPC cells. Nature of the data set: Cell binding and uptake (internalization) in MPC cells. It counts as cell-based, mouse. As for the experimental part:
Furthermore, the receptor-mediated endocytosis (referred to as internalization) of the novel compounds was assessed. The values for the internalized fraction (or “acid wash” resistant fraction) were >50% (Figure S5), which might indicate a similar pharmacological behavior of these ligands upon binding to SST2 as the parent ligand TATE.
Cell binding and uptake were measured as previously described. , MPC cells were seeded into collagen-coated 24-well microplates and cultivated for 4 days. All washing steps were performed using PBS containing 0.9 mM CaCl2 and 0.5 mM MgCl2. Total radioligand uptake was measured after incubation with the radioligand (A m = 30 GBq/μmol) at a final concentration of 20 nM in RPMI 1640 medium with GlutaMAX supplement (Thermo Fisher Scientific) for 1 h at 37 and 4 °C. Nonspecific binding was determined in the presence of 20 μM Acetyl-TATE. The uptake fraction was measured after acid wash of cell surface-bound radioligand with wash buffer containing 0.05 M glycine, pH 2.8, for 5 min. The activity of cell homogenates was measured using the γ counter Wizard (PerkinElmer). The protein content of cell homogenates was measured as described above.
Figure S5: Cell binding data
Data shown in A and B are mean values (±SD) of one experiment (NODAGA-cLAB(5/6)- TATE and NODAGA-cLAB4-scrTATE) or 3 experiments (±SEM, DOTA-EB-TATE), which were performed in sextuplicate. In C, the amount of specific “internalized” (acid resistant) radioligand (red bars in A, mean values) is expressed as percentage of specific total -bound radioligand (blue bars in A, mean values). The difference to 100% was assigned to “surface - bound” radioligand. For a better overview, the compound names were abbreviated. […]
specific binding of radioligand
Incubation at 37°C for 1 h
(% dose/mg of protein) Washing with
Incubation at 4°C for 1 h […]
(1 picture or pasted object on this page, not shown here)

The nature of data set [9]: n-Octanol/PBS distribution coefficient (log D7.4).
Protocol: The log D7.4 values of the ^64Cu-labeled peptides were determined with the octanol partitioning method.
The determination of the log D7.4 value was done in triplicate as previously described. , Briefly, a sample of the radioligand was added to the 1:1 mixture of PBS/n-octanol. The radioactivity in a defined volume of each layer was measured (ISOMED 2100). The distribution coefficient was expressed as the logarithm of the ratio of counts per minute (cpm) measured in the n-octanol phase to the cpm measured in the PBS phase.

Read-outs that look alike come from different tables or passages of the source.

Sequence of human serum albumin (HSA) (P02768 25-609): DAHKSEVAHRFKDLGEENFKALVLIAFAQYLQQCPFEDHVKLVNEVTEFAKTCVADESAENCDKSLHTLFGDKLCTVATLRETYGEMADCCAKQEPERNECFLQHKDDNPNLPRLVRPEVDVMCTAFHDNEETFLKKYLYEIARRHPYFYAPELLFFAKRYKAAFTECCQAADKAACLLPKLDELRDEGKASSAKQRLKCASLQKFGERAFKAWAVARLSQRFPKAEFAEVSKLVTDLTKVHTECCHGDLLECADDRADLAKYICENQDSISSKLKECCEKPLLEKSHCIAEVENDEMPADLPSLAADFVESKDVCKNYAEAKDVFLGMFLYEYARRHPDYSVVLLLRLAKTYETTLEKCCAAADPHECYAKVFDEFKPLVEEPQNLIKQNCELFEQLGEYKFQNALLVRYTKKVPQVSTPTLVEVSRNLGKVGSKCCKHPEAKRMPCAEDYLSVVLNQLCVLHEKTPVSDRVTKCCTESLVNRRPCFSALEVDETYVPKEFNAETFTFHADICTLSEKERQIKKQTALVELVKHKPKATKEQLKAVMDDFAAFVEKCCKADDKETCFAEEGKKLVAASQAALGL
T1 sequence (P02768 25-609): as above

With `C[C@@H](O)[C@H](NC(=O)[C@@H]1CSSC[C@H](NC(=O)[C@@H](Cc2ccccc2)NC(=O)COCCOCCNC(=O)[C@H](Cc2cn(-c3ccc(C(=O)N[C@@H](CCCCNC(=O)CCCc4ccc(I)cc4)C(=O)O)cc3)nn2)NC(=O)CC[C@H](C(=O)O)N2CCN(CC(=O)O)CCN(CC(=O)O)CC2)C(=O)N[C@@H](Cc2ccc(O)cc2)C(=O)N[C@H](Cc2c[nH]c3ccccc23)C(=O)N[C@@H](CCCCN)C(=O)N[C@@H]([C@@H](C)O)C(=O)N1)C(=O)O` [[64Cu]Cu-NODAGA-cLAB2-TATE, metal not drawn], on HSA [1] (linear regression, CI of 95%: 0.48–0.90), the “slope of Schild plot” value came out at 0.69. For the same compound, the Kd was 1.8 µM at HSA [1] (x-intercept of Schild plot, 5–100 μM HSA); 2.6 to 6.1 µM on HSA [2] (1–100 μM HSA, read-out: Kd[HSA] derived from saturation binding, range over the HSA concentrations); 3.06 µM on HSA [2] ([HSA] 20 μM, read-out: Kd[HSA] derived from saturation binding); 2.59 µM at HSA [2] ([HSA] 40 μM, read-out: Kd[HSA] derived from saturation binding); 6.12 µM on HSA [2] ([HSA] 100 μM, read-out: Kd[HSA] derived from saturation binding). Also, the fu stood at 0.64 in data set [3] (1 μM HSA, fu=Kd/(Bmax+Kd)); 0.26 in [3] (5 μM HSA); 0.08 in [3] (20 μM HSA); 0.04 in data set [3] (40 μM HSA); 0.02 in [3] (100 μM HSA). Moreover, the “tumor SUVmean” value in data set [4] (24 h p.i.) is listed as 3.1; in data set [4] (48 h p.i.), 2.4. The “AUC0–48h[tumor]” value in data set [4] (same MPC model) is listed as 123 SUVmean*h.
Turning to `C[C@@H](O)[C@H](NC(=O)[C@@H]1CSSC[C@H](NC(=O)[C@@H](Cc2ccccc2)NC(=O)COCCOCCNC(=O)[C@H](Cc2cn(-c3ccc(C(=O)N[C@@H](CCCCNC(=O)CCCc4ccc(F)cc4)C(N)=O)cc3)nn2)NC(=O)CC[C@H](C(=O)O)N2CCN(CC(=O)O)CCN(CC(=O)O)CC2)C(=O)N[C@@H](Cc2ccc(O)cc2)C(=O)N[C@H](Cc2c[nH]c3ccccc23)C(=O)N[C@@H](CCCCN)C(=O)N[C@@H]([C@@H](C)O)C(=O)N1)C(=O)O` [[64Cu]Cu-NODAGA-cLAB5-TATE, metal not drawn], the Kd in data set [3] was 440 µM. The half-life in data set [5] (37 °C, up to 24 h, single experiment, read-out: t1/2 (plasma), mouse) was about 13 h. In addition, in data set [5] (24 h, radio-HPLC), the “hydrolysis of the primary amide in mouse plasma” value is reported as “hydrolyzed”. Besides, the half-life in [6] is over 24 h. Also, in data set [7], the SUV came out at 8.9 SUV, the SUV at 2 h is 7.9 SUV, the SUV at 4 h was determined as 4.9 SUV and the SUV at 24 h was found to be 2.3 SUV. In data set [8], this compound gave an AUC0-48h heart of 5.98 SUVmean*h, an AUC0-48h kidney of 32.36 SUVmean*h, an AUC0-48h liver of 22.25 SUVmean*h and an AUC0-48h tumor of 148 SUVmean*h. The AUC0-48h tumor in [8] (listed as cLAB5) is 148.10 SUVmean*h. Also, the “specific binding of radioligand” value with MPC cells (incubation at 4 °C for 1 h, washing with PBS pH 7.4, 20 nM) was 0.94 % dose/mg of protein. The “specific binding of radioligand” value in the data set on MPC cells (incubation at 4 °C for 1 h, washing with glycine buffer pH 2.8, 20 nM) is 0.30 % dose/mg of protein. In the data set on MPC cells (incubation at 37 °C for 1 h, washing with PBS pH 7.4 (total bound), 20 nM), the “specific binding of radioligand” value is 5.74 %dose/mg of protein. For the same compound, the “specific binding of radioligand” value in the data set on MPC cells (incubation at 37 °C for 1 h, washing with glycine buffer pH 2.8 (acid resistant), 20 nM) is 3.34 %dose/mg of protein. In addition, the pH-dependent lipophilicity (logD) in data set [9] was -2.27.
